Measured values published in PMC5171800, “Genes encoding norcoclaurine synthase occur as tandem fusions in the Papaveraceae” (Scientific Reports, 2016).
Like-named read-outs stand apart in the source and are kept apart here.

Columns and labels:
NDONCS3 = tested on: T1, NDONCS3; assay: CD spectroscopy at […] nm, (S)-norcoclaurine formation; assay type: biochemical, Nandina domestica; conditions: pH 7.3, 37 °C, 50 mM phosphate
T1 construct: full-length single-domain polypeptide with signal peptide region retained; His-tagged (pET29b), E. coli, TALON purified

CCHNCS2 = tested on: T2, CCHNCS2; assay: as above; assay type: biochemical, Corydalis cheilanthifolia; conditions: saturating dopamine; pH 7.3, 37 °C, 50 mM phosphate; 4-HPAA kinetics sigmoidal, table gives Hill coefficient for dopamine
T2 construct: full-length natural tandem fusion of two NCS domains; His-tagged (pET29b), E. coli, TALON purified (purification section prints CCHNCS1)

O=CCc1ccc(O)cc1 = assay: purified protein; assay type: biochemical, Thalictrum flavum; conditions: saturating dopamine, pH 7.3, 37 °C, 50 mM phosphate, 4-HPAA kinetics sigmoidal, table gives Hill coefficient for dopamine

Compound: O=CCc1ccc(O)cc1 [4-hydroxyphenylacetaldehyde]
- Km (NDONCS3; saturating dopamine, 4-HPAA kinetics sigmoidal, table gives Hill coefficient for dopamine, read-out: Km (μM) (4-HPAA)): 480 ± 120 µM
- Km (CCHNCS2): 1830 ± 697 µM

Compound: NCCc1ccc(O)c(O)c1 [dopamine]
- Km (NDONCS3; saturating 4-HPAA, Hill fit by table (the source assigns sigmoidal kinetics to 4-HPAA), read-out: K’m (μM) (dopamine)): 347 ± 35 µM

Compound: TFLNCS2Δ25 (Thalictrum flavum)
- Km (O=CCc1ccc(O)cc1): 494 ± 112 µM
- kcat (O=CCc1ccc(O)cc1): 2.4 ± 0.2 s⁻¹
